In patent US20210079443A1, “INDICATOR BAC[…] SELECTING AND […] EFFICACY OF THERAPEUTICS AND METHODS FOR USING SAME” (priority 2018, published 2021):

Experiments:
Experiment in all cases: Phage-Mediated Detection of Staphylococcus aureus
Type in all cases: cell-based
[1] = system: Staphylococcus aureus strain AR0479 (MRSA, CDC Panel)
Description: (§1) Samples of methicillin-resistant S. aureus (MRSA) were primed by adding 135 μl of samples containing S. aureus to rich media. The rich media included sub-inhibitory antibiotic (cefoxitin) to allow for specific enrichment and induction of MRSA. Samples were incubated in rich media for 1-2 hours. Following the priming of the samples, additional cefoxitin was added to the media and samples were incubated for an additional 2 hours. Staphylococcus aureus-specific bacteriophage NanoLuc Indicator phage was added to the samples and incubated for 2 hours. Lysis buffer and NANO-GLO® reagent were added. Following 5 minutes of incubation, measurements of bioluminescence were taken using a GLOMAX® 96 instrument. A signal/background ratio ≥750 RLU indicated positive detection of S. aureus. A signal/background ratio of <750 RLU indicated the sample was negative for S. aureus.

[2] = system: Staphylococcus aureus strain BAA-2313 (MRSA, ATCC)
Description: as §1

[3] = system: Staphylococcus aureus strain AR0463 (MRSA, CDC Panel)
Description: as §1

[4] = system: Staphylococcus aureus strain BAA-1720 (MRSA, ATCC); settings: detected CFU 16, cefoxitin 1.8 ug/mL
Description: as §1

[5] = system: Staphylococcus aureus strain AR0469 (MRSA, CDC Panel)
Description: as §1

[6] = system: Staphylococcus aureus strain AR0482 (MRSA, CDC Panel)
Description: as §1

[7] = system: Staphylococcus aureus strain AR0486 (MSSA, CDC Panel)
Description: as §1

[8] = system: Staphylococcus aureus strain AR0480 (MRSA, CDC Panel)
Description: as §1

[9] = system: Staphylococcus aureus strain AR0470 (MRSA, CDC Panel)
Description: as §1

[10] = system: Staphylococcus aureus strain AR0490 (MSSA, CDC Panel)
Description: as §1

[11] = system: Staphylococcus aureus strain AR0465 (MRSA, CDC Panel)
Description: as §1

[12] = system: Staphylococcus aureus strain AR0473 (MRSA, CDC Panel)
Description: as §1

[13] = system: Staphylococcus aureus strain AR0485 (MSSA, CDC Panel)
Description: as §1

With CO[C@@]1(NC(=O)Cc2cccs2)C(=O)N2C(C(=O)O)=C(COC(N)=O)CS[C@@H]21 [Cefoxitin, cefoxitin] the “Cefoxitin Concentration 1 ug/mL (indicator phage luminescence signal)” value (“Cefoxitin Concentration 1 ug/mL” below) ([1]; detected CFU 52, cefoxitin 1 ug/mL) was 51560 RLU, the “Cefoxitin Concentration 2 ug/mL (indicator phage luminescence signal)” value (“Cefoxitin Concentration 2 ug/mL” below) ([1]; detected CFU 52, cefoxitin 2 ug/mL) was 34730 RLU and the “Cefoxitin Concentration 4 ug/mL (indicator phage luminescence signal)” value (shortened to “Cefoxitin Concentration 4 ug/mL”) ([1]; detected CFU 52, cefoxitin 4 ug/mL) was 6803 RLU. For the same molecule, the “Cefoxitin Concentration 1 ug/mL” value ([2]; detected CFU 192, cefoxitin 1 ug/mL) was 363300 RLU, the “Cefoxitin Concentration 2 ug/mL” value ([2]; detected CFU 192, cefoxitin 2 ug/mL) was 52440 RLU and the “Cefoxitin Concentration 4 ug/mL” value ([2]; detected CFU 192, cefoxitin 4 ug/mL) was 2409 RLU. The “Cefoxitin Concentration 1.8 ug/mL (indicator phage luminescence signal)” value ([3]; detected CFU 28, cefoxitin 1.8 ug/mL) was 1941 RLU, the “Cefoxitin Concentration 1 ug/mL” value ([3]; detected CFU 265, cefoxitin 1 ug/mL) was 8987 RLU and the “Cefoxitin Concentration 2 ug/mL” value ([3]; detected CFU 265, cefoxitin 2 ug/mL) was 3377 RLU. For the same molecule, the “Cefoxitin Concentration 4 ug/mL” value ([3]; detected CFU 265, cefoxitin 4 ug/mL) was 339 RLU, the “Cefoxitin Concentration 1.8 ug/mL (indicator phage luminescence signal)” value [4] was 4034 RLU and the “Cefoxitin Concentration 1 ug/mL” value ([5]; detected CFU 523, cefoxitin 1 ug/mL) was 35110 RLU. For the same molecule, the “Cefoxitin Concentration 2 ug/mL” value ([5]; detected CFU 523, cefoxitin 2 ug/mL) was 22030 RLU, the “Cefoxitin Concentration 4 ug/mL” value ([5]; detected CFU 523, cefoxitin 4 ug/mL) was 9007 RLU and the “Cefoxitin Concentration 1 ug/mL” value ([6]; detected CFU 75, cefoxitin 1 ug/mL) was 6741 RLU. For the same molecule, the “Cefoxitin Concentration 2 ug/mL” value ([6]; detected CFU 75, cefoxitin 2 ug/mL) was 2477 RLU, the “Cefoxitin Concentration 4 ug/mL” value ([6]; detected CFU 75, cefoxitin 4 ug/mL) was 204 RLU and the “Cefoxitin Concentration 1 ug/mL” value ([7]; detected CFU 220, cefoxitin 1 ug/mL) was 9217 RLU. For the same molecule, the “Cefoxitin Concentration 4 ug/mL” value ([7]; detected CFU 220, cefoxitin 4 ug/mL) was 252 RLU, the “Cefoxitin Concentration 1 ug/mL” value ([8]; detected CFU 356, cefoxitin 1 ug/mL) was 1038000 RLU and the “Cefoxitin Concentration 2 ug/mL” value ([8]; detected CFU 356, cefoxitin 2 ug/mL) was 430200 RLU. The “Cefoxitin Concentration 4 ug/mL” value ([8]; detected CFU 356, cefoxitin 4 ug/mL) was 127400 RLU, the “Cefoxitin Concentration 1 ug/mL” value ([9]; detected CFU 215, cefoxitin 1 ug/mL) was 3502 RLU and the “Cefoxitin Concentration 2 ug/mL” value ([9]; detected CFU 215, cefoxitin 2 ug/mL) was 1846 RLU. The “Cefoxitin Concentration 4 ug/mL” value ([9]; detected CFU 215, cefoxitin 4 ug/mL) was 179 RLU, the “Cefoxitin Concentration 1 ug/mL” value ([10]; detected CFU 940, cefoxitin 1 ug/mL) was 40620 RLU and the “Cefoxitin Concentration 2 ug/mL” value ([10]; detected CFU 940, cefoxitin 2 ug/mL) was 254 RLU. For the same molecule, the “Cefoxitin Concentration 4 ug/mL” value ([10]; detected CFU 940, cefoxitin 4 ug/mL) was 582 RLU, the “Cefoxitin Concentration 1 ug/mL” value ([11]; detected CFU 101, cefoxitin 1 ug/mL) was 8263 RLU and the “Cefoxitin Concentration 2 ug/mL” value ([11]; detected CFU 101, cefoxitin 2 ug/mL) was 4086 RLU. For the same molecule, the “Cefoxitin Concentration 4 ug/mL” value ([11]; detected CFU 101, cefoxitin 4 ug/mL) was 3006 RLU, the “Cefoxitin Concentration 1 ug/mL” value ([12]; detected CFU 219, cefoxitin 1 ug/mL) was 60000 RLU and the “Cefoxitin Concentration 2 ug/mL” value ([12]; detected CFU 219, cefoxitin 2 ug/mL) was 17500 RLU. For the same molecule, the “Cefoxitin Concentration 4 ug/mL” value ([12]; detected CFU 219, cefoxitin 4 ug/mL) was 338 RLU, the “Cefoxitin Concentration 1 ug/mL” value ([13]; detected CFU 190, cefoxitin 1 ug/mL) was 13930 RLU and the “Cefoxitin Concentration 2 ug/mL” value ([13]; detected CFU 190, cefoxitin 2 ug/mL) was 236 RLU. For the same molecule, the “Cefoxitin Concentration 4 ug/mL” value ([13]; detected CFU 190, cefoxitin 4 ug/mL) was 301 RLU.
